Values of other authors in patent US7094805B2, “Total synthesis of merrilactone A” (The Trustees of Columbia University in the City of New York, priority 2001, dated 2006).

Test system: fetal rat cortical neurons

C[C@@]12COC(=O)[C@]1(C)[C@@H]1O[C@]3(C)[C@@H](O)C[C@]24OC(=O)C[C@]143 (racemic) [compound 1, merrilactone A]
promotion of neurite outgrowth (general statement): promote neurite outgrowth
concentrations at which neurite outgrowth is greatly promoted (preliminary studies, natural merrilactone A, "at concentrations as low as"): 0.1 to 10 µmol
